Laboratory results taken from patent US5770691A, “Discriminatory substrates for MMP hydrolysis” (Regents of the University of Minnesota, priority 1995, dated 1998).
Where two headings read alike, the source gives them in different places. Where a SMILES comes first, the peptide text is derived from it. [ ]: non-standard residue; d: D form. The star is where a group is joined. Dnp = O=[N+]([O-])c1ccc(*)c([N+](=O)[O-])c1; Mca = COc1ccc2c(CC(=O)*)cc(=O)oc2c1; Nva = CCC[C@H](N)C(=O)O

Columns and labels:
MMP-9 [1] = biological target: T1, MMP-9 (Homo sapiens, UniProt P14780); experiment: Fluorometric hydrolysis of synthetic Mca/Lys(Dnp) substrates by MMP-9; format: biochemical; parameters: made in house; host or cells: native secreted protein purified from culture medium of HT-1080 cells
From the text: (§1) All MMPs were purified in zymogen form. ProMMP-1 (Suzuki et al., Biochem., 29, 10261 (1990)), proMMP-2 (Okada et al., Eur. J. Biochem., 194, 721 (1990)), and proMMP-3 (Ito et al., Arch. Biochem. Biophys., 267, 211 (1988)) were purified from the culture medium of human rheumatoid synovial cells stimulated with rabbit macrophage-conditioned medium. ProMMP-9 was purified from the culture medium of HT-1080 cells as described in Morodomi et al., Biochem. J., 285, 603 (1992). ProMMP-2 and proMMP-9 were activated by reacting with 1 mM 4-aminophenylmercuric acetate at 37° C. for 45 minutes and 32 hours, respectively. ProMMP-1 was activated by reacting with 1 mM 4-aminophenylmercuric acetate and an equimolar amount of MMP-3 at 37° C. for 6 hours. After activation, MMP-3 was completely removed from MMP-1 by affinity chromatography using an anti-MMP-3 IgG Affi-Gel 10 column. The resin, Affi-Gel 10 (Biorad, Emoryville, Calif.), was coupled to anti-MMP-3 IgG (Okada et al., Annals of Rheumat. Dis., 48, 645 (1989)) per the manufacturer's protocol. Pro-MMP-3 was activated by reacting with 5 μg/mL chymotrypsin at 37° C. for 2 hours. Chymotrypsin was inactivated with 2 mM diisopropylfluorophosphate. The amounts of active MMP-1, MMP-2, and MMP-3 were determined by titration with tissue inhibitor of metalloproteinase-1(TIMP1) over a concentration range of 0.1-3 μg/mL, while the amount of active MMP-9 was determined by titration with TIMP-2 (0.1-3 μg/mL). TIMP-1 was isolated from the medium of HT-1080 cells as described in Morodomi et al., Biochem J., 285, 603 (1992).
(§2) Substrates were prepared as 10 mM stock solutions in dimethylsulfoxide (DMSO). Fluorescent assays were performed at λex =325 nm and λem =393 nm, which should encounter no interference from Trp residues, using a Hitachi fluorescence spectrophotometer F-3010. Initial total hydrolysis assays were run at a substrate concentration of […] to avoid filtering effects. The change in fluorescence at this concentration was 110 based on total hydrolysis of 1 μM substrate. A typical assay was carried out by incubating 100 μL of various concentrations of a substrate with 10 μL of an enzyme solution (2-20 nM) in 50 mM Tris-HCl, pH 7.5, 0.15M NaCl, 10 mM CaCl2, 0.05% Brij 35, 0.02% NaN3. The reaction was stopped by addition of 900 μl of 3% (v/v) glacial acetic acid. MMP-3 activity at pH 6.0 was measured in 50 mM sodium acetate buffer, pH 6.0, instead of Tris-HCl buffer. The amount of substrate hydrolysis was calculated based on the fluorescence values of the Mca-Arg-Pro-Lys-Pro-Gln standard solution after substraction of the reaction blank value (stopping solution added before the enzyme). Individual kinetic parameters (kcat and KM) were determined over a substrate concentration range of 2.5-75 μM and calculated by double reciprocal plots.

MMP-9 [2] = biological target: T1, MMP-9; experiment: as above; format: biochemical; parameters: made in house; host or cells: native secreted protein purified from culture medium of HT-1080 cells; conditions: Edman degradation analysis after 36-72 hour treatment of substrate with MMP
MMP-1 = biological target: T2, MMP-1 (Homo sapiens, UniProt P03956); experiment: Fluorometric hydrolysis of synthetic Mca/Lys(Dnp) substrates by MMP-1; format: biochemical; parameters: made in house; host or cells: native secreted protein purified from culture medium of human rheumatoid synovial cells; conditions: for site of hydrolysis by MMP-1: Edman degradation analysis after 36-72 hour treatment of substrate with MMP
T2 sequence (P03956 100-469): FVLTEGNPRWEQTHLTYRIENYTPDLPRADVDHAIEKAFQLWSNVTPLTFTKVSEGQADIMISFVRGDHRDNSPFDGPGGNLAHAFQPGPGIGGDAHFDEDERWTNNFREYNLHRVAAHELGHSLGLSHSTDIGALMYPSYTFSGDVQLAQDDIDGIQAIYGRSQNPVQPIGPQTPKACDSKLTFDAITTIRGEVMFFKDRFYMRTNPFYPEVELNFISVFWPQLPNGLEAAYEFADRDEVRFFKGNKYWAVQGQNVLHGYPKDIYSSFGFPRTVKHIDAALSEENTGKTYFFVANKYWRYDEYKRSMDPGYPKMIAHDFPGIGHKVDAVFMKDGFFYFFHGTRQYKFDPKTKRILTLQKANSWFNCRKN
From the text: as §1, §2

MMP-2 = biological target: T3, MMP-2 (Homo sapiens, UniProt P08253); experiment: Fluorometric hydrolysis of synthetic Mca/Lys(Dnp) substrates by MMP-2; format: biochemical; parameters: made in house; host or cells: native secreted protein purified from culture medium of human rheumatoid synovial cells; conditions: for site of hydrolysis by MMP-2: Edman degradation analysis after 36-72 hour treatment of substrate with MMP
T3 sequence (P08253 110-660): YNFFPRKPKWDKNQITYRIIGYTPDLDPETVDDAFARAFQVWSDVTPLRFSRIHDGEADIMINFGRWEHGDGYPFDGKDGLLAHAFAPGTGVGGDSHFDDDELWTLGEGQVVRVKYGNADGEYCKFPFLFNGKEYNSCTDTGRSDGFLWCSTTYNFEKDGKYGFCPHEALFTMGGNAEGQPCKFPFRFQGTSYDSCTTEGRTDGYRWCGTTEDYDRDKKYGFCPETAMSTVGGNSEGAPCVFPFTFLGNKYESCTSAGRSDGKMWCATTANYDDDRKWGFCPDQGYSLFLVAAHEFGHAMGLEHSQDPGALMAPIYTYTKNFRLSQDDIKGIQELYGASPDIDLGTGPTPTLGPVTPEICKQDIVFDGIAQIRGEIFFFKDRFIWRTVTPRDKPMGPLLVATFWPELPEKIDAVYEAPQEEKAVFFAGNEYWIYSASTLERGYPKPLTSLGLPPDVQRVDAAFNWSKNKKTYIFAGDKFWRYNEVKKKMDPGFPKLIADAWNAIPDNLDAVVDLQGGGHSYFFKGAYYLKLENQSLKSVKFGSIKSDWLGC
From the text: as §1, §2

MMP-3 [3] = biological target: T4, MMP-3 (Homo sapiens, UniProt P08254); experiment: Fluorometric hydrolysis of synthetic Mca/Lys(Dnp) substrates by MMP-3; format: biochemical; parameters: made in house; host or cells: native secreted protein purified from culture medium of human rheumatoid synovial cells; conditions: for kcat /Km: MMP-3, 37° C., pH 7.5
From the text: as §1, §2
Target sequence in this assay (P08254 100-477): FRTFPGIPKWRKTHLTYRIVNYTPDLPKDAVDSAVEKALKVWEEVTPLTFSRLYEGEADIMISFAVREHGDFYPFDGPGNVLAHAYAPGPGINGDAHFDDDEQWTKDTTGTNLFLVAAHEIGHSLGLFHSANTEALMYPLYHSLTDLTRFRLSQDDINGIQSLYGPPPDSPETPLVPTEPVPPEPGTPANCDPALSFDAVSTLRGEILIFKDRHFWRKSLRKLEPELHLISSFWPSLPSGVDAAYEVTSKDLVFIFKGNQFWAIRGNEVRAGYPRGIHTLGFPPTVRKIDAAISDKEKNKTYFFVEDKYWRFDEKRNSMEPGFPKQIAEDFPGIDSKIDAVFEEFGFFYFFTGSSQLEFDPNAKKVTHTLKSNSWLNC

MMP-3 [4] = biological target: T4, MMP-3; experiment: as above; format: biochemical; parameters: made in house; host or cells: native secreted protein purified from culture medium of human rheumatoid synovial cells; conditions: Edman degradation analysis after 36-72 hour treatment of substrate with MMP
Target sequence in this assay (P08254 100-477): as above

MMP-3 [5] = biological target: T4, MMP-3; conditions: MMP-3 cleavage, cited from earlier work
Target sequence in this assay (P08254 100-477, species assumed): as the sequence (P08254 100-477) above

MMP-3 [6] = biological target: T4, MMP-3; conditions: cited from earlier work
Target sequence in this assay (P08254 100-477, species assumed): as the sequence (P08254 100-477) above

T1 sequence (P14780 107-707 limits assumed): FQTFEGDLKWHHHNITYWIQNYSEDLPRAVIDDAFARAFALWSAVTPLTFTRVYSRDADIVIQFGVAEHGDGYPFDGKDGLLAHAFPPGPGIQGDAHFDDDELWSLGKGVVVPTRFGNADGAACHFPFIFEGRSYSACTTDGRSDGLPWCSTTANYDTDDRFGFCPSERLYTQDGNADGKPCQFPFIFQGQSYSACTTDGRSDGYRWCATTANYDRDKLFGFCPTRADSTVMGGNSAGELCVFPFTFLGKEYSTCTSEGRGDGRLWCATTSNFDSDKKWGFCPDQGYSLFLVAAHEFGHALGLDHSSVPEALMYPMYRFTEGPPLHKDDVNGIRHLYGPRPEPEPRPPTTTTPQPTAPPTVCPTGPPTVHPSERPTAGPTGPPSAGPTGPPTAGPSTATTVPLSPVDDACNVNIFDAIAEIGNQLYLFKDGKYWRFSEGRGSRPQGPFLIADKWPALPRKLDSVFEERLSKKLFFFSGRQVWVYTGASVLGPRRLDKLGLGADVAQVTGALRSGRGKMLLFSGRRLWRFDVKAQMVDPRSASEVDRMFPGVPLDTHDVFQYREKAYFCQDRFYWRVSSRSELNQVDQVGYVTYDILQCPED

Compound: COc1ccc2c(CC(=O)N3CCC[C@H]3C(=O)N[C@@H](CCCCN)C(=O)N3CCC[C@H]3C(=O)N[C@@H](CCC(N)=O)C(=O)N[C@@H](CCC(N)=O)C(=O)N[C@@H](Cc3ccccc3)C(=O)N[C@@H](Cc3ccccc3)C(=O)NCC(=O)N[C@@H](CC(C)C)C(=O)N[C@@H](CCCCNc3ccc([N+](=O)[O-])cc3[N+](=O)[O-])C(=O)NCC(=O)O)cc(=O)oc2c1 [NFF-1, Mca-Pro-Lys-Pro-Gln-Gln-Phe-Phe-Gly-Leu-Lys(Dnp)-Gly] (Mca-PKPQQFFGLK(Dnp)G-OH)
- less activity of MMP-9 than MMP-3 towards the substrate (MMP-9 [1]; MMP-9 compared with MMP-3): 60%
- site of hydrolysis by MMP-9 (MMP-9 [2]): Gly--Leu bond
- ratio of hydrolysis at the Gln-Phe and Gly-Leu bonds by MMP-1 (MMP-1; Edman degradation analysis after 36-72 hour treatment): 3.2
- site of hydrolysis by MMP-1 (MMP-1): Gln--Phe and Gly--Leu bonds
- less activity of MMP-1 than MMP-3 towards the substrate (MMP-1; MMP-1 compared with MMP-3): 75%
- site of hydrolysis by MMP-2 (MMP-2): Gln--Phe bond
- kcat /Km (MMP-3 [3]): 10,900 S^-1 M^-1
- hydrolysis by MMP-3 compared with MMP-2 (MMP-3 [3]; MMP-3 and MMP-2): equally well
- site of hydrolysis by MMP-3 (MMP-3 [4]): Gln--Phe bond

Compound: CCC[C@H](NC(=O)[C@H](C)NC(=O)[C@H](Cc1ccc(O)cc1)NC(=O)[C@@H]1CCCN1C(=O)[C@H](CCCCN)NC(=O)[C@@H]1CCCN1C(=O)[C@H](CCCNC(=N)N)NC(=O)Cc1cc(=O)oc2cc(OC)ccc12)C(=O)N[C@@H](Cc1c[nH]c2ccccc12)C(=O)N[C@@H](CCSC)C(=O)N[C@@H](CCCCNc1ccc([N+](=O)[O-])cc1[N+](=O)[O-])C(N)=O [NFF-2, Mca-Arg-Pro-Lys-Pro-Tyr-Ala-Nva-Trp-Met-Lys(Dnp)-NH2] (Mca-RPKPYA[Nva]WMK(Dnp)-NH2)
- hydrolysis by MMP-9 (MMP-9 [1]): most rapidly hydrolyzed substrate for MMP-9 reported to date
- hydrolyzed more rapidly than NFF-1 by MMP-9 (MMP-9 [1]; rate relative to NFF-1): 14 times
- site of hydrolysis by MMP-9 (MMP-9 [2]): Ala--Nva bond
- site of hydrolysis by MMP-1 (MMP-1): Ala--Nva bond
- MMP-1 activity reduced compared to NFF-1 (MMP-1; relative to NFF-1): ~ 50%
- site of hydrolysis by MMP-2 (MMP-2): Ala--Nva bond
- hydrolyzed more rapidly than NFF-1 by MMP-2 (MMP-2; rate relative to NFF-1): 5 times
- kcat /Km (MMP-3 [3]): 59,400 S^-1 M^-1
- hydrolyzed more rapidly than NFF-1 by MMP-3 (MMP-3 [3]; rate relative to NFF-1): 6 times
- hydrolyzed more rapidly by MMP-3 than MMP-1 (MMP-3 [3]; selectivity MMP-3 over MMP-1): 60 times
- site of hydrolysis by MMP-3 (MMP-3 [4]): Ala--Nva bond

Compound: Antithrombin III
- kcat /Kb (MMP-3 [5]; determined at 37° C.): < 50 S^-1 M^-1

Compound: Dnp--Pro--Tyr--Ala"--"Tyr--Trp--Met--Arg--NH3 (Dnp-PYAYWMR-NH2; not fully specified; printed as Dnp—Pro—Tyr—Ala"—"Tyr—Trp—Met—Arg—NH$_3$) [literature fluorogenic substrate (Netzel-Arnett et al., 1991)]
- kcat (MMP-3 [6]; MMP-3, assay at 23° C.): 0.24 S^-1
- Km (MMP-3 [6]; MMP-3, assay at 30° C.): 100 µM
- kcat Km (MMP-3 [6]; MMP-3, assay at 37° C.): 2,400 S^-1 M^-1

Compound: Dnp-Arg-Pro-Lys-Pro-Leu-Ala-Nva-Trp-NH2 (Dnp-RPKPLA[Nva]W-NH2; SMILES CCC[C@H](NC(=O)[C@H](C)NC(=O)[C@H](CC(C)C)NC(=O)[C@@H]1CCCN1C(=O)[C@H](CCCCN)NC(=O)[C@@H]1CCCN1C(=O)[C@H](CCCNC(=N)N)Nc1ccc([N+](=O)[O-])cc1[N+](=O)[O-])C(=O)N[C@@H](Cc1c[nH]c2ccccc12)C(N)=O) [literature fluorogenic MMP-3 substrate (Niedzwiecki et al., 1992)]
- kcat Km (MMP-3 [6]; MMP-3, assay at 25° C.): 45,000 S^-1 M^-1

Compound: Gly--Pro--Gln--Gly"--"Ile--Ala--Met--Gln (chain 1 GPQG; chain 2 IAMQ; printed: Gly--Pro--Gln--Gly; printed: Ile--Ala--Met--Gln) [literature synthetic MMP-3 substrate (Fields, 1988)]
- Km (MMP-3 [6]; MMP-3, assay at 30° C.): 5600 µM
- kcat (MMP-3 [6]; MMP-3, assay at 30° C.): 0.69 S^-1
- kcat Km (MMP-3 [6]; MMP-3, assay at 30° C.): 120 S^-1 M^-1

Compound: Human aggrecan: extracellular matrix protein cleaved by MMP-3 at Asn341-Phe342
- kcat /Kb (MMP-3 [5]; determined at 22° C.): 4,000 S^-1 M^-1

Compound: Human α2 -macroglobulin: protein substrate of MMP-3; cleavage sites Gly679-Leu680 and Phe684-Tyr685
- kcat /Kb (MMP-3 [5]; determined at 25° C.): 56,000 S^-1 M^-1

Compound: Substance P: 11 residue peptide substrate of MMP-3, cleaved at Gln6-Phe7 [reference compound]
- kcat /Kb (MMP-3 [5]; determined at 37° C.): 1,790 S^-1 M^-1

Compound: α1 -Protease inhibitor: protease inhibitor cleaved by MMP-3 at Pro357-Met358
- kcat /Kb (MMP-3 [5]; determined at 37° C.): 5,400 S^-1 M^-1
